Measurements from US20250170132A1, “SALTS AND POLYMORPHIC FORMS OF MENIN INHIBITORS AND PHARMACEUTICAL COMPOSITIONS THEREOF” (Syndax Pharmaceuticals, Inc., priority 2023, published 2025).

Columns and labels:
Format in all cases: physicochemical
[1] = Polymorph screen: sonication induced crystallization
Description: (§1) X-ray powder diffraction (XRPD) • Instrument: Panalytical Empyrean • Parameters: X-Ray tube Cu (Kα radiation); Power: 45 kV×40 mA • Scanning range: 2 to 40 2θ (degree) • Step size: 0.01 degree • Scanning speed: 6.33 degree (20) per minute Thermogravimetric analysis (TGA) • Instrument: TA Instruments Discovery TGA • Parameters: Ramp 10° C. per minute, 25 to 300° C., 50 mL/min N2 sweep Differential scanning calorimetry (DSC) • Instrument: TA Instruments Discovery DSC • Parameters: Ramp 10° C. per minute, up to 300° C. Polarized light microscopy (PLM) • Instrument: Nikon Eclipse Ci POL • Camera: Nikon DS-Fi3 • Software: Nikon NIS Elements
Sonication induced crystallization—About 40 mg API was suspended and sonicated in different solvents in 4 mL vials at RT. The solids in the slurry were characterized by XRPD after 1-day (Table 38).

[2] = Polymorph screen: slurry at 50° C.; settings: slurry 50° C.
Description: as §1
Slurry at 50° C.—About 40 mg API was suspended and stirred in different solvents in 4 mL vials at 50° C. The solids in the slurry were characterized by XRPD after 3 days (Table 34).

[3] = Polymorph screen: solid vapor diffusion
Description: as §1
Solid vapor diffusion—About 30 mg API was transferred into 4 mL vials which are placed in 20 mL glass vials containing different solvents. The solids were tested by XRPD after 7-10 days (Table 31).

[4] = Polymorph screen: solvent drop grinding; settings: XRPD
Description: as §1
Solvent drop grinding—About 30 mg API was ground with different solvents. The obtained solids were characterized by XRPD (Table 39).

[5] = Polymorph screen: anti-solvent addition
Description: as §1
Experiments using 10 different techniques including using techniques such as anti-solvent addition, solid vapor diffusion, liquid vapor diffusion, slurry (at RT and 50° C.), slow evaporation, polymer induced crystallization, thermal cycling, sonication, and wet grinding.
Obtained solids were tested by XRPD (Table 30).

## CCN(C(=O)c1cc(F)ccc1Oc1cncnc1N1CC2(CCN(C[C@H]3CC[C@H](NS(=O)(=O)CC)CC3)CC2)C1)C(C)C [Compound A monocitrate monohydrate]
[1]; DMSO:EtOAc 1:9, XRPD after 1 day
  Crystal Form: Form A
[1]; THF, XRPD after 1 day
  Crystal Form: Form A
[2]; 1-propanol
  Crystal Form: Form A
[2]; 2-MeTHF
  Crystal Form: Form A
[2]; ACN 9:1
  Crystal Form: Form A
[2]; Anisole
  Crystal Form: Form A
[2]; Cyclohexane
  Crystal Form: Form A
[2]; Dimethoxyethane
  Crystal Form: Form A
[2]; Ethyl acetate/MeOH 3:1
  Crystal Form: Form A
[2]; Heptane
  Crystal Form: Form A
[2]; IPAc
  Crystal Form: Form A
[2]; MEK
  Crystal Form: Form A
[2]; MTBE
  Crystal Form: Form A
[2]; Methyl Acetate
  Crystal Form: Form A
[2]; NMP:CPME (3:7 v/v)
  Crystal Form: Form A
[2]; Propylene glycol:Acetone 1:1
  Crystal Form: Form A
[2]; Propylene glycol:IPA 1:1
  Crystal Form: Form A
[2]; THF 9:1
  Crystal Form: Form A
[2]; Toluene
  Crystal Form: Form A
[3]; solid vapor diffusion, 1,4-dioxane, RT
  Crystal Form: Form A
[3]; solid vapor diffusion, 2-Methyl THF, RT
  Crystal Form: Form A
[3]; solid vapor diffusion, CHCl3, RT
  Crystal Form: Form A
[3]; solid vapor diffusion, CPME, 40° C.
  Crystal Form: Form A
[3]; solid vapor diffusion, DCM, RT
  Crystal Form: Form A
[3]; solid vapor diffusion, Dimethoxyethane, 40° C.
  Crystal Form: Form A
[3]; solid vapor diffusion, IPAc, RT
  Crystal Form: Form A
[3]; solid vapor diffusion, MEK, RT
  Crystal Form: Form A
[3]; solid vapor diffusion, MTBE, RT
  Crystal Form: Form A
[3]; solid vapor diffusion, THF, RT
  Crystal Form: Form A
[3]; solid vapor diffusion, Toluene, 40° C.
  Crystal Form: Form A
[4]; about 30 mg API, 1,4-Dioxane
  Crystal Form: Form A
[4]; about 30 mg API, Acetone
  Crystal Form: Form A
[4]; about 30 mg API, DCM
  Crystal Form: Form A
[4]; about 30 mg API, EtOH
  Crystal Form: Form A
[4]; about 30 mg API, THF
  Crystal Form: Form A
[5]; solvent DMA, antisolvent CPME
  Crystal Form: Form A
[5]; solvent DMA, antisolvent EtOAc
  Crystal Form: Form A
[5]; solvent DMA, antisolvent Toluene
  Crystal Form: Form A
[5]; solvent DMSO, antisolvent Benzene, *Loss of crystallinity
  Crystal Form: Form A*
[5]; solvent NMP, antisolvent IPAc
  Crystal Form: Form A
